Measured values as given in patent publication US12552694B2, “Use of trivalent metals to enhance aquatic pesticide efficacy, surface water, and sediment quality while minimizing risk to aquatic biota” (SePRO Corporation, priority 2022, dated 2026).
Where two headings read alike, the source gives them in different places.

Assays:
[1] = test system: duckweed (Lemna spp.); experiment: Example 7: duckweed plant coverage (Canopeo) after herbicides with and without La/Ce; format: in vivo; details: for Plant coverage, 3 Days Post: 3 days post treatment; for Plant coverage, 5 Days Post: 5 days post treatment; for Plant coverage, 7 Days Post: 7 days post treatment; for Plant coverage, Pre-Treat.: prior to treatments (baseline)
[2] = Example 1: capacity of additives to bind dissolved La and Ce (ICP-OES); format: physicochemical
[3] = Example 4: bound La and Ce over time and final pH (FIG. 1); format: physicochemical; details: after the final samples (30 minutes), continuously stirred; control 5.6
[4] = test system: duckweed; details: 24 hours
Experimental: In one exemplary experiment, 16-oz cups were filled with 400 mL of well water containing approximately 100 μg-P/L as phosphate. One cup was left as the no biomass control and approximately 8 g (±0.5 g) of actively growing duckweed were added to the other cups. One cup was left as a control and diquat (as Weedtrine® D) was added to each of the other cups at the following rates: 50 μg/L. 100 μg/L, 200 μg/L, and 300 μg/L. These samples were then placed under artificial lighting with a scheduled 16-hour light period and 8-hour dark period. […] Samples then were briefly stirred and allowed to sit under the lighting. After 2 hours, water samples were collected with a syringe, filtered with a 0.22 μm nylon filter, acidified with nitric acid, and analyzed for lanthanum and cerium concentration.

[5] = test sample: La/Ce stock in 50 mL deionized water with 90-110 mg additive

## fluridone [Fluridone only]
[1]; 3 Days Post vs pre-treatment
  % Change in plant coverage: −8%
[1]; 5 Days Post vs pre-treatment
  % Change in plant coverage: −15%
[1]; 7 Days Post vs pre-treatment
  % Change in plant coverage: −14%
[1]
  Plant coverage, 3 Days Post: 23%
  Plant coverage, 5 Days Post: 22%
  Plant coverage, 7 Days Post: 22%
  Plant coverage, Pre-Treat.: 25%

## C=CC(=O)[O-].[Na+] [Sodium acrylate, sodium acrylate]
[2]
  pH: 7

## O=[Si]([O-])[O-].[Na+].[Na+] [Sodium metasilicate (anhydrous), sodium metasilicate (anhydrous)]
[2]; [5]
  pH: 13

## Cc1nn(-c2cc(CC(Cl)C(=O)O)c(Cl)cc2F)c(=O)n1C(F)F (centres unmarked) [Carfentrazone only, carfentrazone]
[1]; 3 Days Post vs pre-treatment
  % Change in plant coverage: 13%
[1]; 5 Days Post vs pre-treatment
  % Change in plant coverage: −29%
[1]; 7 Days Post vs pre-treatment
  % Change in plant coverage: −17%
[1]
  Plant coverage, 3 Days Post: 39%
  Plant coverage, 5 Days Post: 24%
  Plant coverage, 7 Days Post: 29%
  Plant coverage, Pre-Treat.: 34%

## O.O=C([O-])C(=O)[O-].[K+].[K+] [Potassium oxalate (monohydrate), potassium oxalate (monohydrate)]
[2]
  pH: 7

## NC(=O)CC[C@H](N)C(=O)O [Glutamine, glutamine]
[2]; [5]
  pH: 7

## O=C([O-])[O-].[Ca+2] [Calcium carbonate, calcium carbonate]
[2]
  pH: 7.5

## [Ca+2].[OH-].[OH-] [Calcium hydroxide, calcium hydroxide]
[2]
  pH: 14
[3]
  pH of beaker: 8.7 (±0.1)

## [O]=[Mg] [Magnesium oxide, magnesium oxide]
[2]
  pH: 7.5
[3]
  pH of beaker: 8.0 (±0.1)

## O=C([O-])C(O)C(O)C(=O)[O-].[Na+].[Na+] (centres unmarked) [Sodium tartrate, sodium tartrate]
[2]
  pH: 6.5

## copper ethanolamine [Copper ethanolamine only]
[1]; 3 Days Post vs pre-treatment
  % Change in plant coverage: −2%
[1]; 5 Days Post vs pre-treatment
  % Change in plant coverage: −89%
[1]; 7 Days Post vs pre-treatment
  % Change in plant coverage: −89%
[1]
  Plant coverage, 3 Days Post: 35%
  Plant coverage, 5 Days Post: 4%
  Plant coverage, 7 Days Post: 4%
  Plant coverage, Pre-Treat.: 35%

## c1cc[n+]2c(c1)-c1cccc[n+]1CC2 [Diquat only, diquat]
[1]; 3 Days Post vs pre-treatment
  % Change in plant coverage: −75%
[1]; 5 Days Post vs pre-treatment
  % Change in plant coverage: −89%
[1]; 7 Days Post vs pre-treatment
  % Change in plant coverage: −92%
[1]
  Plant coverage, 3 Days Post: 10%
  Plant coverage, 5 Days Post: 4%
  Plant coverage, 7 Days Post: 3%
  Plant coverage, Pre-Treat.: 40%
[4]; 50 μg/L diquat
  Perceived injury: 20%
[4]; 100 μg/L diquat
  Perceived injury: 40%
[4]; 200 μg/L diquat
  Perceived injury: 50%
[4]; 300 μg/L diquat
  Perceived injury: 80%

## [Na+].[OH-] [Sodium hydroxide, sodium hydroxide]
[2]
  pH: 14

## O=C([O-])CC(O)(CC(=O)[O-])C(=O)[O-].[Na+].[Na+].[Na+] [Sodium citrate, sodium citrate]
[2]
  pH: 8
